Results reported in patent publication US20090176888A1, “COMPOSITION COMPRISING PHYTOSPHINGOSINE OR DERIVATIVE THEREOF” (KOREA INSTITUTE OF RADIOLOGICAL & MEDICAL SCIENCES, priority 2003, published 2009).

Columns and labels:
[1] = system: human lung cancer cells; test: Analysis of mitochondrial membrane potential (DioC6(3), flow cytometry) and cytochrome c release; assay type: cell-based; settings: 10 μg/ml phytosphingosine
Procedure: Human lung cancer cells and blood cancer cells were cultured under the same condition as in the apoptosis test and were treated with 10 ml of phytosphingosine (10 μg/ml of phytosphingosine for lung cancer cells, and 5 μg/ml and 10 μg/ml of phytosphingosine for blood cancer cells). Then, the analysis of mitochondrial membrane potential and western blotting was carried out. Mitochondria were stained with 30 nM of a specific DioC6(3) dye (Calbiochem) for 30 minutes and culture media were removed. Then, lung cancer cells were twice washed with PBS and the membrane potential was analyzed by flow cytometry.

[2] = system: human breast cancer cells; test: Apoptosis test with or without radiation; assay type: cell-based; settings: 5 μg/ml in combination with radiation, FIG. 17
Procedure: (§1) (1) Each 5 ml of 20 μg/ml of phytosphingosine and derivatives thereof were added to human lung cancer cell-containing dishes. Some cells were cultured without radiation and others were cultured with radiation with dose of 4 Gy. This apoptosis test was carried out in the same manner in the Experiment 1. Specimens used in this apoptosis test are as follows:
(§2) Control (Cont), IR, PS, PS+IR, C4PS, C4PS+IR, C6PS, C6PS+IR, C8PS, C8PS+IR, C12PS, C12PS+IR.
(§3) (2) Apoptosis tests for human blood cancer cells, uterine cervical cancer cells, and breast cancer cells were carried out in the same manner as in the above (1) except using 5 μg/ml of phytosphingosine and derivatives thereof.

[3] = system: human uterine cervical cancer cells; test: Apoptosis test with or without radiation; assay type: cell-based; settings: 5 μg/ml in combination with radiation, FIG. 17
Procedure: as §1, §2, §3

[4] = system: human blood cancer cells; test: Apoptosis test with or without radiation; assay type: cell-based; settings: 5 μg/ml in combination with radiation
Procedure: as §1, §2, §3

[5] = Dermal irritation test; assay type: in vivo; settings: rabbits
From the text: Royal Gist-Brocades N.V. (Netherlands) was asked to perform tests for acute oral toxicity and dermal irritation, and Ames tests of phytosphingosine and derivatives thereof.

[6] = system: blood cancer cells (Jurkat); test: Apoptosis test (Sub G1, propidium iodide, flow cytometry); assay type: cell-based, human
Procedure: Cancer cells as used in the experiment were human lung cancer cells (NCI-H460, Korean Cell Line Bank), human breast cancer cells (MDA-MB-231, American Type Culture Collection (ATCC)), human uterine cervical cancer cells (HeLa, Korean Cell Line Bank), and blood cancer cells (Jurkat, ATCC). These cancer cells were cultured in RPMI 1640 media containing 10% FBS, penicillin, and streptomycin (GIBCO BRL). The apoptosis tests were carried out at human lung cancer cells, breast cancer cells, uterine cervical cancer cells, and blood cancer cells as follows: Phytosphingosine or a derivative thereof was dissolved in DMSO. Samples of the resultant solution of different concentration levels (1, 2, 5, 10, 15, 20 μg/ml) were prepared. According to the following treatment schedule, phytosphingosine treated cancer cells were cultured, washed with PBS (phosphate buffered saline), and fixed with 70% ethanol. The fixed cells were again washed with PBS, suspended in PBS, and 1 mg/ml of RNase was added thereto. Then, DNA was stained with 50 μg/ml of propidium iodide fluorescent dye and the change in the Sub G1 was analyzed by flow cytometry (Becton DICKINSON). The Sub G1, a marker of apoptotic cell death, means DNA distribution lower than that in the G1 phase of cell cycle. (1-1) In order to determine an anticancer effect of phytosphingosine, 5 ml of 10 μg/ml of phytosphingosine was added to respective dishes containing lung cancer cells, breast cancer cells, uterine cervical cancer cells, and blood cancer cells. (1-2) In order to examine a correlation of an anticancer effect with the phytosphingosine concentration and post-treatment culture time, each 5 ml of 2, 5, 10, and 15 μg/ml of phytosphingosine was added to respective human uterine cervical cancer cell-containing dishes and human breast cancer cell-containing dishes. In addition, each 5 ml of 5, 10, 15, and 20 μg/ml of phytosphingosine was added to respective human lung cancer cell-containing dishes, and each 5 ml of 1, 5, 10, and 20 μg/ml of phytosphingosine was added to respective human blood cancer cell-containing dishes.

[7] = system: human lung cancer cells (NCI-H460); test: as above; assay type: cell-based
Procedure: Cancer cells as used in the experiment were human lung cancer cells (NCI-H460, Korean Cell Line Bank), human breast cancer cells (MDA-MB-231, American Type Culture Collection (ATCC)), human uterine cervical cancer cells (HeLa, Korean Cell Line Bank), and blood cancer cells (Jurkat, ATCC). These cancer cells were cultured in RPMI 1640 media containing 10% FBS, penicillin, and streptomycin (GIBCO BRL).
The apoptosis tests were carried out at human lung cancer cells, breast cancer cells, uterine cervical cancer cells, and blood cancer cells as follows:
Phytosphingosine or a derivative thereof was dissolved in DMSO. Samples of the resultant solution of different concentration levels (1, 2, 5, 10, 15, 20 μg/ml) were prepared. According to the following treatment schedule, phytosphingosine treated cancer cells were cultured, washed with PBS (phosphate buffered saline), and fixed with 70% ethanol. The fixed cells were again washed with PBS, suspended in PBS, and 1 mg/ml of RNase was added thereto. Then, DNA was stained with 50 μg/ml of propidium iodide fluorescent dye and the change in the Sub G1 was analyzed by flow cytometry (Becton DICKINSON). The Sub G1, a marker of apoptotic cell death, means DNA distribution lower than that in the G1 phase of cell cycle.
(1-1) In order to determine an anticancer effect of phytosphingosine, 5 ml of 10 μg/ml of phytosphingosine was added to respective dishes containing lung cancer cells, breast cancer cells, uterine cervical cancer cells, and blood cancer cells.
(1-2) In order to examine a correlation of an anticancer effect with the phytosphingosine concentration and post-treatment culture time, each 5 ml of 2, 5, 10, and 15 μg/ml of phytosphingosine was added to respective human uterine cervical cancer cell-containing dishes and human breast cancer cell-containing dishes. In addition, each 5 ml of 5, 10, 15, and 20 μg/ml of phytosphingosine was added to respective human lung cancer cell-containing dishes, and each 5 ml of 1, 5, 10, and 20 μg/ml of phytosphingosine was added to respective human blood cancer cell-containing dishes.
(1-3) An anticancer effect of phytosphingosine derivatives was determined in the same manner as mentioned in (1-1) and (1-2) except using 5 μg/ml of C4PS, C6PS, C8PS, and C12PS.

[8] = 10 μg/ml phytosphingosine, test (1-1), FIG. 1

Compound: CCCCCCCCCCCCCC[C@@H](O)[C@@H](O)[C@@H](N)CO [phytosphingosine]
- release of cytochrome c from mitochondria ([1]; FIGS. 7, 9): increased
- mitochondrial membrane potential ([1]; FIGS. 7-8): decreased
- enhancement of radiosensitizing effect [2]: excellent
- enhancement of radiosensitizing effect [3]: excellent
- increase of apoptotic rate, concurrent treatment vs PS or radiation alone ([4]; FIG. 15): ≥ 20%
- increase of apoptotic rate, concurrent treatment vs PS or radiation alone ([4]; after 18 hours, FIG. 16): ≥ 15%
- dermal irritation [5]: did not cause dermal damages
- apoptosis ([6]; 5 μg/ml or more, culture of 6 hours or more, FIG. 6): ≥ 50%
- apoptosis ([6]; 5 μg/ml, at 3-6 hours after treatment): ≥ 50%
- apoptosis ([6]; 10 μg/ml or more, culture of 3 hours or more, FIG. 6): ≥ 50%
- apoptotic rate [6, 8]: ≥ 50%
- apoptosis ([7]; 10 μg/ml or more, culture of 6 hours or more, FIG. 5): 50%
- apoptotic rate [7, 8]: ≥ 50%
- apoptosis ([7]; 10 μg/ml, at 3-6 hours after treatment): ≥ 50%
